Assays:
Homoserine Dehydrogenase = Homoserine Dehydrogenase (Corynebacterium glutamicum, UniProt P08499); assay: Homoserine dehydrogenase feedback inhibition by threonine (crude enzyme solution); type: biochemical, Brevibacterium flavum; settings: 1 mM threonine
Description: The amount of threonine produced in a given fermentation experiment was measured by the method described below, and the amount of lysine produced was measured by an acidic ninhydrin method. Further, the DPS activity was measured as follows. A medium obtained by adding 1 g/l of DAP to a medium useful for threonine production shown in Table 3 was dispensed in 20 ml amounts into 500 ml flasks which could be shaken. The flasks were sterilized by autoclaving. The medium compositions used were N50S30 for the AJ 12360 strain and N25S35 for the AJ 12361-2 and DA 110 strains. Each medium was inoculated with one loop of the strain which had been previously cultivated in a complete agar plate medium shown in Table 2. Each medium was supplemented with 1 g/l of DAP and 300 mg/l of L-histidine hydrochloride at 30° C. for 24 hours, and culturing was conducted at 30° C. for 40 hours in the shaking flasks. The cells were collected and washed with a 0.2% potassium chloride solution. These washed cells were suspended in a 50 mM potassium phosphate buffer (pH 7.0), and then were centrifugally separated after ultrasonic treatment in a supernatant. The supernatant was gel filtered through a Sephadex G25 column using the same buffer to prepare a crude enzyme solution. The activity was measured by carrying out the reaction at 30° C. for 10 minutes, terminating the reaction by adding 1 ml of 0.05 N hydrochloric acid thereto, and then measuring the change in absorbance at 340 nm by using a reaction mixture shown in Table 8 to determine the amount of pyruvic acid consumed. The control for this reaction was a DL-aspartate-β-semialdehyde-free system. The HD activity was measured as follows. The crude enzyme solution was prepared in a manner similar to that employed in the above-described DPS activity measurement, except that a 0.1 M potassium phosphate buffer containing 0.5 M potassium chloride (pH 7.0) was used as the buffer instead of the 50 mM potassium phosphate buffer. The activity measurement was conducted by measuring the reduction in absorbance at 340 nm in the reaction system shown in Table 9. The control for this reaction was a DL-aspartate-β-semialdehyde-free system. […]

AJ 12360 (Mutant) = assay: Degree of AHV resistance (growth in glucose minimum liquid medium, absorbance); type: cell-based; settings: [Brevibacterium] flavum, 24 h, read-out: Relative Degree of Growth (%)
Description: (§1) Thereafter, the degrees of AHV resistance of DPS deleted strains AJ 12360 and AJ 12361 were compared against their parent strains. The degree of AHV resistance was determined by cultivating the strain in the complete agar plate medium shown in Table 2 which also contained 1 g/l of DAP, […] of dipicolinic acid and further, in the case of AJ 12361 and its parent strain AC 664, 300 mg/l of L-histidine hydrochloride as a growth promoting substance, at 30° C. for 24 hours. The same medium dispensed in 3 ml into test tubes, was inoculated with the cells, and the inoculated media were cultured while being shaked for 24 hours. The absorbance of each medium was measured at 566 nm under conditions in which AHV was added or was not added to a given medium. To each glucose minimum liquid medium prepared were added, as growth promoting substances, 200 mg/l of L-histidine hydrochloride, in the case of AJ 12361 and AC 664 strains, and 500 mg/l each of DAP and lysine in the case of AJ 12360 and AJ 11955 strains. Especially, since DAP or DAP and lysine often promoted the growth of the DPS deleted or reduced strain, DAP was added to the liquid and plate media in the experiments described so far as needed. […]

AJ 12361 (Mutant) = assay: as above; type: cell-based; settings: [Brevibacterium] flavum, 24 h, read-out: Relative Degree of Growth (%)
Description: as §1

Chain of Homoserine Dehydrogenase (P08499 whole entry): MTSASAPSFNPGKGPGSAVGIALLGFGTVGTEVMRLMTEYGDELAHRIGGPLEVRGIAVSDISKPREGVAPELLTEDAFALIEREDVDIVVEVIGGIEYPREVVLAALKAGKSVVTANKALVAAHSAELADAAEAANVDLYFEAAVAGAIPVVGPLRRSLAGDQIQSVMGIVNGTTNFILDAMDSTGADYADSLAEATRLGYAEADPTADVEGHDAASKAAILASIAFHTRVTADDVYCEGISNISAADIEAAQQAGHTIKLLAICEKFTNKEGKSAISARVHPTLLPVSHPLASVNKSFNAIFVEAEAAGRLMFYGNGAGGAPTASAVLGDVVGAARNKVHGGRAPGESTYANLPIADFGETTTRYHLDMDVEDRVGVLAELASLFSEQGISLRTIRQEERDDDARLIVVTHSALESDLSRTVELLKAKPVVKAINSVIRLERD

SMILES	Homoserine Dehydrogenase Feedback Inhibition (%)** (Homoserine Dehydrogenase; enzyme from strain AC 664 (Parent strain)) [%]	Homoserine dehydrogenase feedback inhibition by threonine (%) (Homoserine Dehydrogenase; enzyme from strain AJ 11955 (parent strain))	Homoserine dehydrogenase feedback inhibition by threonine (%) (Homoserine Dehydrogenase; enzyme from strain AJ 12360 (mutant))	Homoserine Dehydrogenase Feedback Inhibition (%)** (Homoserine Dehydrogenase; enzyme from strain AJ 12361 (Mutant)) [%]	Homoserine Dehydrogenase Feedback Inhibition (%)** (Homoserine Dehydrogenase; enzyme from strain AJ12362 (Mutant)) [%]	Homoserine Dehydrogenase Feedback Inhibition (%)** (Homoserine Dehydrogenase; enzyme from strain AJ12363 (Mutant)) [%]	Homoserine Dehydrogenase Feedback Inhibition (%)** (Homoserine Dehydrogenase; enzyme from strain DA 110 (Mutant)) [%]	activity at 200000 µg/mL (AJ 12360 (Mutant)) [%]	activity at 500000 µg/mL (AJ 12360 (Mutant)) [%]	activity at 1 g/mL (AJ 12360 (Mutant)) [%]	activity at 200000 µg/mL (AJ 12361 (Mutant)) [%]	activity at 500000 µg/mL (AJ 12361 (Mutant)) [%]	activity at 1 g/mL (AJ 12361 (Mutant)) [%]
C[C@@H](O)[C@H](N)C(=O)O [threonine, L-threonine]	98	98	98	98	96	16	98	–	–	–	–	–	–
CCC(O)C(N)C(=O)O (stereo not drawn) [AHV, α-amino-β-hydroxyvaleric acid]	–	–	–	–	–	–	–	46.7	42.6	37.5	105	65.8	39.1

From patent US5077207A, “Process for the production of L-threonine by fermentation” (Ajinomoto Co., Inc., priority 1989, dated 1991)
